According to ChEMBL document CHEMBL1201862, “PubChem BioAssay data set” (2004):
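Exposure lasted 48 hours, with cells grown in 96-well plates and compounds tested at five concentrations. GI50 marks 50% less growth.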 Activity calls are given as the source filed them. Rule as the data show it: active = GI50 up to about 1.1 µM and inactive = higher.

Experiments:
Assay in all cases: growth of human tumour cells (NCI), 48 h
ACHN = system: ACHN
BT-549 = system: BT-549
CAKI-1 = system: CAKI-1
HCC 2998 = system: HCC 2998
HCT-116 = system: HCT-116
HOP-62 = system: HOP-62
HOP-92 = system: HOP-92
IGROV-1 = system: IGROV-1
K562 = system: K562
KM12 = system: KM12
LOX IMVI = system: LOX IMVI
MCF7 = system: MCF7
MDA-MB-231 = system: MDA-MB-231
OVCAR-4 = system: OVCAR-4
OVCAR-8 = system: OVCAR-8
RXF 393 = system: RXF 393
SN12C = system: SN12C
SNB-75 = system: SNB-75
SR = system: SR
SK-MEL-2 = system: SK-MEL-2

SMILES	GI50 (ACHN)	GI50 (BT-549)	GI50 (CAKI-1)	GI50 (HCC 2998)	GI50 (HCT-116)	GI50 (HOP-62)	GI50 (HOP-92)	GI50 (IGROV-1)	GI50 (K562)	GI50 (KM12)	GI50 (LOX IMVI)	GI50 (MCF7)	GI50 (MDA-MB-231)	GI50 (OVCAR-4)	GI50 (OVCAR-8)	GI50 (RXF 393)	GI50 (SN12C)	GI50 (SNB-75)	GI50 (SR)	GI50 (SK-MEL-2)
Cc1ccc2c(O)cc(-c3sccc3C)nc2n1	1.1 µM (active)	4.27 µM (inactive)	0.792 µM (active)	1.02 µM (active)	0.452 µM (active)	2.1 µM (inactive)	> 36.8 µM (inactive)	0.625 µM (active)	0.427 µM (active)	0.719 µM (active)	0.723 µM (active)	0.315 µM (active)	2.48 µM (inactive)	9.79 µM (inactive)	1.99 µM (inactive)	1.31 µM (inactive)	1.67 µM (inactive)	0.726 µM (active)	0.122 µM (active)	–
COc1cccc(-c2nc(-c3cnccn3)n(Cc3ccccc3)n2)c1	–	> 100 µM (inactive)	–	> 100 µM (inactive)	> 100 µM (inactive)	44.4 µM (inactive)	26.5 µM (inactive)	88.7 µM (inactive)	> 100 µM (inactive)	> 100 µM (inactive)	> 100 µM (inactive)	> 100 µM (inactive)	> 100 µM (inactive)	21.6 µM (inactive)	> 100 µM (inactive)	25.4 µM (inactive)	> 100 µM (inactive)	24.4 µM (inactive)	> 100 µM (inactive)	–
O=C1Cc2c([nH]c3cc(Br)ccc23)-c2ccccc2N1	17.5 µM (inactive)	17.2 µM (inactive)	–	–	3.4 µM (inactive)	11.7 µM (inactive)	31.1 µM (inactive)	16.4 µM (inactive)	4.09 µM (inactive)	18.6 µM (inactive)	2.9 µM (inactive)	34.6 µM (inactive)	22.8 µM (inactive)	10.3 µM (inactive)	18.4 µM (inactive)	3.24 µM (inactive)	18.5 µM (inactive)	23.8 µM (inactive)	21.9 µM (inactive)	–
C=CC1=C(C)c2cc3[nH]c(c4c5nc(cc6[nH]c(cc1n2)c(C)c6CC)C=C5C(=O)C4C(=O)OC)C(CCC(=O)OC/C=C(\C)CCCC(C)CCCC(C)CCCC(C)C)C3C.C=CC1=C(C)c2cc3[nH]c(c4c5nc(cc6[nH]c(cc1n2)c(C=O)c6CC)C=C5C(=O)C4C(=O)OC)C(CCC(=O)OC/C=C(\C)CCCC(C)CCCC(C)CCCC(C)C)C3C (stereo not given)	> 100 µM (inactive)	76.4 µM (inactive)	> 100 µM (inactive)	> 100 µM (inactive)	> 100 µM (inactive)	> 100 µM (inactive)	> 100 µM (inactive)	38.9 µM (inactive)	> 100 µM (inactive)	> 100 µM (inactive)	> 100 µM (inactive)	> 100 µM (inactive)	> 100 µM (inactive)	> 100 µM (inactive)	43 µM (inactive)	–	> 100 µM (inactive)	> 100 µM (inactive)	> 100 µM (inactive)	> 100 µM (inactive)
CN(C)c1nc(-c2ccccc2)c(C(=O)c2c[nH]c3ccccc23)s1	30.5 µM (inactive)	> 100 µM (inactive)	9.4 µM (inactive)	6.55 µM (inactive)	3.88 µM (inactive)	15.1 µM (inactive)	–	3.89 µM (inactive)	4.07 µM (inactive)	4.2 µM (inactive)	6.49 µM (inactive)	4.48 µM (inactive)	14.5 µM (inactive)	17.4 µM (inactive)	9.62 µM (inactive)	14.2 µM (inactive)	18.2 µM (inactive)	2.67 µM (inactive)	1.54 µM (inactive)	–
O=c1cc(N2CCCC2)[nH]c(=O)n1-c1ccccc1	> 100 µM (inactive)	> 100 µM (inactive)	> 100 µM (inactive)	37 µM (inactive)	> 100 µM (inactive)	> 100 µM (inactive)	> 100 µM (inactive)	> 100 µM (inactive)	> 100 µM (inactive)	> 100 µM (inactive)	> 100 µM (inactive)	> 100 µM (inactive)	> 100 µM (inactive)	> 100 µM (inactive)	> 100 µM (inactive)	–	> 100 µM (inactive)	> 100 µM (inactive)	> 100 µM (inactive)	> 100 µM (inactive)
O=S(=O)(O)c1ccc2cc(/N=N\c3cc(S(=O)(=O)O)c4cccnc4c3O)ccc2c1	> 100 µM (inactive)	> 100 µM (inactive)	> 100 µM (inactive)	–	> 100 µM (inactive)	> 100 µM (inactive)	> 100 µM (inactive)	> 100 µM (inactive)	> 100 µM (inactive)	> 100 µM (inactive)	> 100 µM (inactive)	> 100 µM (inactive)	> 100 µM (inactive)	> 100 µM (inactive)	> 100 µM (inactive)	> 100 µM (inactive)	–	> 100 µM (inactive)	> 100 µM (inactive)	> 100 µM (inactive)
Cc1ccnn1CCc1ccc(Cl)cc1Cl	27.9 µM (inactive)	13.6 µM (inactive)	28.1 µM (inactive)	–	47.5 µM (inactive)	15 µM (inactive)	–	29.6 µM (inactive)	29.1 µM (inactive)	27 µM (inactive)	33 µM (inactive)	31.9 µM (inactive)	29.3 µM (inactive)	11.7 µM (inactive)	27.9 µM (inactive)	9.91 µM (inactive)	11.8 µM (inactive)	14.5 µM (inactive)	21.9 µM (inactive)	–
CCOC(=O)c1sc2nc(SC)nc3c2c1NC(=O)CN3c1cccc(F)c1	13 µM (inactive)	7.29 µM (inactive)	44.3 µM (inactive)	–	18.2 µM (inactive)	14.5 µM (inactive)	22.5 µM (inactive)	61.8 µM (inactive)	22.4 µM (inactive)	80.5 µM (inactive)	17.8 µM (inactive)	29 µM (inactive)	16.1 µM (inactive)	17.9 µM (inactive)	15.5 µM (inactive)	16.7 µM (inactive)	17.2 µM (inactive)	–	70 µM (inactive)	27.4 µM (inactive)
CC(=O)OCc1ccc(-c2nc(C#N)c(N)o2)o1	> 10 µM (inactive)	> 10 µM (inactive)	> 10 µM (inactive)	> 10 µM (inactive)	> 10 µM (inactive)	> 10 µM (inactive)	> 10 µM (inactive)	> 10 µM (inactive)	> 10 µM (inactive)	> 10 µM (inactive)	> 10 µM (inactive)	> 10 µM (inactive)	> 10 µM (inactive)	> 10 µM (inactive)	> 10 µM (inactive)	> 10 µM (inactive)	> 10 µM (inactive)	> 10 µM (inactive)	> 10 µM (inactive)	–
NCC(=O)N[C@H]1c2ccsc2/C(=N/O)[C@H]1O	–	> 100 µM (inactive)	> 100 µM (inactive)	> 100 µM (inactive)	> 100 µM (inactive)	> 100 µM (inactive)	> 100 µM (inactive)	> 100 µM (inactive)	> 100 µM (inactive)	–	> 100 µM (inactive)	> 100 µM (inactive)	> 100 µM (inactive)	68.9 µM (inactive)	> 100 µM (inactive)	> 100 µM (inactive)	> 100 µM (inactive)	–	> 100 µM (inactive)	> 100 µM (inactive)
OCCN1c2ccccc2Sc2ccccc21	> 10 µM (inactive)	> 10 µM (inactive)	> 10 µM (inactive)	> 10 µM (inactive)	> 10 µM (inactive)	> 10 µM (inactive)	> 10 µM (inactive)	–	> 10 µM (inactive)	> 10 µM (inactive)	> 10 µM (inactive)	> 10 µM (inactive)	> 10 µM (inactive)	> 10 µM (inactive)	> 10 µM (inactive)	–	> 10 µM (inactive)	> 10 µM (inactive)	> 10 µM (inactive)	–
Cc1c(S(=O)(=O)c2ccccc2)c(N)n(CCN(C)C)c1C	> 100 µM (inactive)	36.1 µM (inactive)	> 100 µM (inactive)	75 µM (inactive)	> 100 µM (inactive)	–	> 100 µM (inactive)	> 100 µM (inactive)	> 100 µM (inactive)	> 100 µM (inactive)	–	> 100 µM (inactive)	> 100 µM (inactive)	> 100 µM (inactive)	> 100 µM (inactive)	> 100 µM (inactive)	> 100 µM (inactive)	> 100 µM (inactive)	> 100 µM (inactive)	> 100 µM (inactive)
CCc1ccc(COC(=O)C2=C(C)NC(C)=C(C(=O)OCc3ccc(CC)cn3)C2C2=COCCO2)nc1	25.2 µM (inactive)	14.4 µM (inactive)	23.9 µM (inactive)	19.9 µM (inactive)	16.3 µM (inactive)	17.5 µM (inactive)	20.7 µM (inactive)	39.8 µM (inactive)	18.2 µM (inactive)	30.7 µM (inactive)	15.2 µM (inactive)	19.5 µM (inactive)	14.2 µM (inactive)	25.1 µM (inactive)	32.9 µM (inactive)	15.4 µM (inactive)	> 10 µM (inactive)	14.4 µM (inactive)	21.8 µM (inactive)	–
CN1c2ccccc2SC2C(c3ccccc3)=NOC21 (stereo not given)	52.6 µM (inactive)	26.6 µM (inactive)	40.6 µM (inactive)	23.3 µM (inactive)	23.7 µM (inactive)	33.8 µM (inactive)	–	41.6 µM (inactive)	22.6 µM (inactive)	47.8 µM (inactive)	–	42.7 µM (inactive)	27 µM (inactive)	65.8 µM (inactive)	49.3 µM (inactive)	> 100 µM (inactive)	47.8 µM (inactive)	16 µM (inactive)	62.1 µM (inactive)	38.5 µM (inactive)
